From article PMC4482410, “A Peptide Mimetic of 5-Acetylneuraminic Acid-Galactose Binds with High Avidity to Siglecs and NKG2D” (PLoS ONE, 2015)
Several values for one entry are separate records, joined by “and”; a condition that tells them apart may be missing. Equal values may be shown once. Bridges are numbered along the chain shown (N, C = ends). Roman numbers before positions name the chains, in order. Where no end group is shown, it is not given here.

Legend:
[1] = toxicity in vivo; settings: statement for svH1C or similar glycan mimetics; no data shown
[2] = target: T1, NKG2D (Homo sapiens, UniProt P26718); assay: inhibition of binding of svH1C to NKG2D; settings: estimated from fetuin inhibition (Fig 4); read-out: binding constant of svH1C to NKG2D estimated by inhibition of binding by fetuin
T1 construct: the extracellular lectin-type domain was fused at the N-terminus with a human IgG1 Fc domain; purchased R&D Systems, Inc., Minneapolis, MN
T1 sequence (P26718 73-216 limits assumed): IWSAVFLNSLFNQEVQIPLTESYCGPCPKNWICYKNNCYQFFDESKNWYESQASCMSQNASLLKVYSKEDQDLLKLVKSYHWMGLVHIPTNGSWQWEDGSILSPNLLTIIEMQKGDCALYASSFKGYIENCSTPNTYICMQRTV
Method: (§1) Isothermal microcalorimetry was performed by TA Instruments Professional Services (New Castle, DE) by titrating 10 μM NKG2D (monomer concentration) (R&D Systems, Inc., Minneapolis, MN) with 100 μM svH1C in 50 mM Tris-HCl, pH 7.5, 150 mM NaCl, 0.1 mM EDTA. Recombinant human receptors were obtained from R&D Systems as chimeric proteins. NKG2D is a type II transmembrane protein and the extracellular lectin-type domain was fused at the N-terminus with a human IgG1 Fc domain. Recombinant siglecs contained a C-terminal IgG1 Fc domain or a His6–10 tag. The lyophilized proteins were reconstituted in phosphate-buffered saline, pH 7.2 (PBS), to 100 μg/mL. The Fc-chimeric proteins were bound to protein A/G-coated wells of microtiter plates (Pierce Biotechnology). His-tagged proteins were bound in Nickel-coated plates (Pierce Biotechnology). Sufficient proteins were added to wells to saturate the binding capacity of the wells. After a wash to remove unbound receptor, wells were blocked with 1% gelatin in wash buffer. […] Absorbance was measured at 450 nm and converted to the amount of streptavidin-peroxidase bound with the specific activity of the conjugate determined under the conditions of the assay. […]
Fig 4 Binding of svH1C to NKG2D. (A) The amount of bound peptide was measured after extensive washing with PBS containing 0.05% Tween-20. […]

[3] = target: T1, NKG2D; assay: isothermal microcalorimetry; assay type: binding
Method: as §1, with “wells.” for “wells. After a wash to remove unbound receptor, wells were blocked with 1% gelatin in wash buffer.”
We then assayed binding of svH1C to NKG2D directly by isothermal microcalorimetry. svH1C (100 μM) was titrated into a solution of NKG2D (10 μM, subunit concentration) and changes in heat content of the system were measured. […]

[4] = system: lectins that bind monosaccharides; settings: ref [29],[30]; cited from earlier work
Description: We initially identified several sequences of amino acids that bound to specific plant lectins by screening phage display libraries. Sequences were further refined by in silico modeling of docking of a peptide into the sugar binding site of the crystal structures of lectins. These studies predicted that several short peptide sequences, 5 to 8 amino acids in length, would have significant affinity to lectins chosen as analogs of cell-surface receptors. […] MAA is a mixture of M. amurensis leukoagglutinin (MAL) and M. amurensis hemagglutinin (MAH), both of which along with SNA1 bind preferentially to terminal Neu5Ac-Gal- sequences on complex glycans. Binding of the peptide to several lectins specific for monosaccharides was not detected. We then assayed binding of svH1C to several siglecs, which comprise a family of cell-surface receptors that are specific for Neu5Ac-Gal/GalNAc- sequ ...

[5] = system: siglecs; assay: solid-phase binding of biotinylated tetravalent peptides to siglecs; set-up: species or system human; settings: biotinylated peptides 2 μM
Method: as §1, with “buffer. Wash buffers were either 10 mM phosphate, pH 7.2; 10 mM HEPES, pH 7.4; or 50 mM Tris-HCl, pH.7.5, each in 150 mM NaCl containing 0.05% Tween-20. Biotinylated peptides were prepared as 2 μM solutions in the wash buffer and 50 μL (100 pmoles) were added to each well and incubated at room temperature for one hour. After four washes with 350 μL buffer containing 0.05% Tween-20, each assay was incubated with 50 μL of 1 μg/mL streptavidin-peroxidase (Sigma-Aldrich, St. Louis, MO).” for “buffer.”
MAA is a mixture of M. amurensis leukoagglutinin (MAL) and M. amurensis hemagglutinin (MAH), both of which along with SNA1 bind preferentially to terminal Neu5Ac-Gal- sequences on complex glycans. Binding of the peptide to several lectins specific for monosaccharides was not detected. […]

[6] = system: lectins specific for di- or tri-saccharides that terminate with Neu5Ac-Gal; settings: ref [29],[30]; cited from earlier work
Description: We initially identified several sequences of amino acids that bound to specific plant lectins by screening phage display libraries. Sequences were further refined by in silico modeling of docking of a peptide into the sugar binding site of the crystal structures of lectins. These studies predicted that several short peptide sequences, 5 to 8 amino acids in length, would have significant affinity to lectins chosen as analogs of cell-surface receptors. The sequences identified by this approach were incorporated into tetravalent structures, a design based on the concept of avidity as a fun ...

Row | Substance | toxicity in vivo [1] | Kd [2] [nM] | Kd ([3]; 100 μM svH1C titrated into 10 μM NKG2D (subunit concentration), 50 mM Tris-HCl, pH 7.5, 150 mM NaCl, 0.1 mM EDTA, read-out: KD) | Kd ([3]; abstract, range for siglecs and NKG2D together, read-out: KD, NKG2D (abstract range)) [nM] | binding to lectins specific for monosaccharides [4] | binding of biotinylated tetravalent peptides to siglecs [5] | binding to lectins specific for di- or tri-saccharides that terminate with Neu5Ac-Gal [6]
1 | I: NPSHPLSGGGGSKK-NH2 / II: NPSHPLSGGGGSK / III: NPSHPLSGGGGS / IV: NPSHPLSGGGGS (amide I:13-IV:C, I:14-II:C, II:13-III:C) [svH1C, [(NPSHPLSGGGGS)2K]2K-NH2] | non-toxic in vivo | ~1000 | 580 nM and 600 nM | 600 to 1000 | – | – | –
2 | NPSHPSLG (also: tetravalent, biotinylated) [svH1D] | – | – | – | – | did not bind | also bound to siglecs | bound strongly
